Test results: patent US8101754B2, “Triazole compounds suitable for treating disorders that respond to modulation of the dopamine D3 receptor” (Abbott GmbH & Co. KG, priority 2004, dated 2012)
Where two headings read alike, the source gives them in different places.

Legend:
[1] = biological target: T1, human dopamine D3 receptors (Homo sapiens, UniProt P35462); assay: Dopamine D3 receptor binding ([125I]-iodosulpride displacement)
T1 construct: expressed in transfected cells; membranes)
Method: The substance to be tested was either dissolved in methanol/Chremophor® (BASF-AG) or in dimethyl sulfoxide and then diluted with water to the desired concentration.
Each assay mixture was run in triplicate.
The incubation buffer contained 50 mM tris, 120 mM NaCl, 5 mM KCl, 2 mM CaCl2, 2 mM MgCl2 and 0.1% bovine serum albumin, 10 μM quinolone and 0.1% ascorbic acid (prepared fresh daily). The buffer was adjusted to pH 7.4 with HCl.
Measurement and Analysis:
After having been incubated at 25° C. for 60 minutes, the assay mixtures were filtered through a Wathman GF/B glass fiber filter under vacuum using a cell collecting device. The filters were transferred to scintillation viols using a filter transfer system. After 4 ml of Ultima Gold® (Packard) have been added, the samples were shaken for one hour and the radioactivity was then counted in a Beta-Counter (Packard, Tricarb 2000 or 2200CA). The cpm values were converted into dpm using a standard quench series and the program belonging to the instrument.
The inhibition curves were analyzed by means of iterative nonlinear regression analysis using the Statistical Analysis System (SAS) which is similar to the “LIGAND” program described by Munson and Rodbard.

[2] = biological target: T2, human dopamine D2L receptors (long isoform) (Homo sapiens, UniProt P14416); assay: Dopamine D2L receptor binding ([125I] iodospiperone), basis of selectivity Ki(D2)/Ki(D3); details: for Selectivity [Ki(D2)/Ki(D3)]: D2L vs D3
T2 construct: expressed in transfected cells; membranes)
Method: The substance to be tested was either dissolved in methanol/Chremophor® (BASF-AG) or in dimethyl sulfoxide and then diluted with water to the desired concentration. […] Each assay mixture was run in triplicate. The incubation buffer contained 50 mM tris, 120 mM NaCl, 5 mM KCl, 2 mM CaCl2, 2 mM MgCl2 and 0.1% bovine serum albumin. The buffer was adjusted to pH 7.4 with HCl. Measurement and Analysis: After having been incubated at 25° C. for 60 minutes, the assay mixtures were filtered through a Wathman GF/B glass fiber filter under vacuum using a cell collecting device. The filters were transferred to scintillation viols using a filter transfer system. After 4 ml of Ultima Gold® (Packard) have been added, the samples were shaken for one hour and the radioactivity was then counted in a Beta-Counter (Packard, Tricarb 2000 or 2200CA). The cpm values were converted into dpm using a standard quench series and the program belonging to the instrument. The inhibition curves were analyzed by means of iterative nonlinear regression analysis using the Statistical Analysis System (SAS) which is similar to the “LIGAND” program described by Munson and Rodbard.

[3] = Table 5, membranes of HEK-293 cells, read-out: Ki D3
[4] = Table 6, membranes of HEK-293 cells, read-out: ki D3

T2 sequence (P14416 whole entry, canonical isoform): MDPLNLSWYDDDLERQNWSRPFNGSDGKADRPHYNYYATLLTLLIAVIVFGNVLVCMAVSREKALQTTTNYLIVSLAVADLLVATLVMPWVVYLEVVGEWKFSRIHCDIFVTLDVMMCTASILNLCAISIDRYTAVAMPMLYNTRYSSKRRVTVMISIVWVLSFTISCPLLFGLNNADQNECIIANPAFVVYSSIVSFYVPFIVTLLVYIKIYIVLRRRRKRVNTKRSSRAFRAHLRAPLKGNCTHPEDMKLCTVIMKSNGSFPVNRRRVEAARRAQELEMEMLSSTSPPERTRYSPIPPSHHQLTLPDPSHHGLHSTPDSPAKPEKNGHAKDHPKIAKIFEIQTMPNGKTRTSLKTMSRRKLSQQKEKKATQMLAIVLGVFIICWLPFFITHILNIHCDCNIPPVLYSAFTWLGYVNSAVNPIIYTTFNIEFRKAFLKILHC
T1 sequence (P35462 whole entry): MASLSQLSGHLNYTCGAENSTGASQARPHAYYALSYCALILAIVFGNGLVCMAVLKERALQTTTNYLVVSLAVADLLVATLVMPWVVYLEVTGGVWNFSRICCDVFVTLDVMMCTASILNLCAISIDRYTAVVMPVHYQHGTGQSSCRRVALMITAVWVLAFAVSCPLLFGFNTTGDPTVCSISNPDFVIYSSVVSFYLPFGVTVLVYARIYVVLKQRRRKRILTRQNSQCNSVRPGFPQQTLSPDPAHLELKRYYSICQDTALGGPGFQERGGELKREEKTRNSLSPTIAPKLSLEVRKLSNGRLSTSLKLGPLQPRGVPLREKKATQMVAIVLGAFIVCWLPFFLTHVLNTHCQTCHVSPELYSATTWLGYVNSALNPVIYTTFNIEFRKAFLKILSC

Ki [1, 4] | Selectivity [Ki(D2)/Ki(D3)] ([2]; Table 6) | SMILES | other results
5.95 nM | 53 | Cn1cnnc1S(=O)(=O)CCCN1CCN(c2cc(C(C)(C)C)nc(C(C)(C)C)n2)CC1 [Example 17, 2,4-Di-tert-butyl-6-{4-[3-(4-methyl-4H-[1,2,4]triazole-3-sulfonyl)-propyl]-piperazin-1-yl}-pyrimidine] | 
25 nM | 17 | Cn1cnnc1[S+]([O-])CCCN1CCN(c2cc(C(C)(C)C)nc(C(C)(C)C)n2)CC1 (stereo not shown) [Example 18, 2,4-Di-tert-butyl-6-{4-[3-(4-methyl-4H-[1,2,4]triazole-3-sulfinyl)-propyl]-piperazin-1-yl}-pyrimidine] | 
16.6 nM | 18 | Cl.Cn1cnc([S+]([O-])CCCN2CCN(c3cc(C(F)(F)F)nc(C(C)(C)C)n3)CC2)n1 (stereo not shown) [Example 21, 2-tert-Butyl-4-{4-[3-(1-methyl-1H-[1,2,4]triazole-3-sulfinyl)-propyl]-piperazin-1-yl}-6-trifluoromethyl-pyrimidine hydrochloride] | 
59.8 nM | 49 | CC(C)c1cc(N2CCN(CCCS(=O)(=O)c3nncn3C)CC2)nc(C(C)(C)C)n1 [Example 23, 2-tert-Butyl-4-{4-[3-(4-methyl-1H-[1,2,4]triazole-3-sulfonyl)-propyl]-piperazin-1-yl}-6-isopropyl-pyrimidine] | 
7.5 nM | 20 | Cn1cnnc1S(=O)(=O)CCCN1CCN(c2cc(C3CCCC3)nc(C(C)(C)C)n2)CC1 [Example 24, 2-tert-Butyl-4-{4-[3-(4-methyl-1H-[1,2,4]triazole-3-sulfonyl)-propyl]-piperazin-1-yl}-6-cyclopentyl-pyrimidine] | 
23.3 nM | 30 | Cn1cnnc1[S+]([O-])CCCN1CCN(c2cc(C3CCCC3)nc(C(C)(C)C)n2)CC1 (stereo not shown) [Example 25, 2-tert-Butyl-4-{4-[3-(4-methyl-1H-[1,2,4]triazole-3-sulfinyl)-propyl]-piperazin-1-yl}-6-cyclopentyl-pyrimidine] | 
44.6 nM | 33 | CCCc1cc(N2CCN(CCCS(=O)(=O)c3nncn3C)CC2)nc(C(C)(C)C)n1 [Example 26, 2-tert-Butyl-4-{4-[3-(4-methyl-1H-[1,2,4]triazole-3-sulfonyl)-propyl]-piperazin-1-yl}-6-propyl-pyrimidine] | 
9.9 nM | 158 | CCCc1cc(N2CCN(CCC[S+]([O-])c3ncn(C)n3)CC2)nc(C(C)(C)C)n1.Cl (stereo not shown) [Example 28, 2-tert-Butyl-4-{4-[3-(1-methyl-1H-[1,2,4]triazole-3-sulfinyl)-propyl]-piperazin-1-yl}-6-propyl-pyrimidine hydrochloride] | 
20.3 nM | 59 | CCCc1cc(N2CCN(CCCS(=O)(=O)c3ncn(C)n3)CC2)nc(C(C)(C)C)n1 [Example 29, 2-tert-Butyl-4-{4-[3-(1-methyl-1H-[1,2,4]triazole-3-sulfonyl)-propyl]-piperazin-1-yl}-6-propyl-pyrimidine] | 
3.5 nM | 51 | Cl.Cn1cnc([S+]([O-])CCCN2CCN(c3cc(C(C)(C)C)nc(C(C)(C)C)n3)CC2)n1 (stereo not shown) [Example 30, 2,6-di-tert-Butyl-4-{4-[3-(1-methyl-1H-[1,2,4]triazole-3-sulfinyl)-propyl]-piperazin-1-yl}-pyrimidine hydrochloride] | 

The next lines start with the molecule.

SMILES | Ki [1, 4] | Selectivity [Ki(D2)/Ki(D3)] ([2]; Table 6) | other results
CCCc1cc(N2CCN(CCCS(=O)(=O)c3nnc(C)n3C)CC2)nc(C(C)(C)C)n1 [Example 9, 2-Di-tert-butyl-6-{4-[3-(4,5-dimethyl-4H-[1,2,4]triazole-3-sulfonyl)-propyl]-piperazin-1-yl}-6-propyl-pyrimidine] |  |  | Ki [1, 3]: 18.3 nM; Selectivity [Ki(D2)/Ki(D3)] ([2]; Table 5): 45
Cc1nnc(S(=O)(=O)CCCN2CCN(c3cc(C4(C)CC4)nc(C(C)(C)C)n3)CC2)n1C [Example 10, 2-tert-Butyl-4-{4-[3-(4,5-dimethyl-4H-[1,2,4]triazole-3-sulfonyl)-propyl]-piperazin-1-yl}-6-(1-methyl-cyclopropyl)-pyrimidine] |  |  | Ki [1, 3]: 7.8 nM; Selectivity [Ki(D2)/Ki(D3)] ([2]; Table 5): 37
CCCc1cc(N2CCN(CCCS(=O)(=O)c3nnc(CC)n3C)CC2)nc(C(C)(C)C)n1 [Example 12, 2-tert-Butyl-4-{4-[3-(5-ethyl-4-methyl-4H-[1,2,4]triazole-3-sulfonyl)-propyl]-piperazin-1-yl}-6-propyl-pyrimidine] |  |  | Ki [1, 3]: 12.8 nM; Selectivity [Ki(D2)/Ki(D3)] ([2]; Table 5): 55
Cn1c(-c2ccc(F)cc2)nnc1[S+]([O-])CCCN1CCN(c2cc(C(F)(F)F)nc(C(C)(C)C)n2)CC1 (stereo not shown) [Example 15, 2-tert-Butyl-4-(4-{3-[5-(4-fluoro-phenyl)-4-methyl-4H[1,2,4]triazole-3-sulfinyl]-propyl}-piperazin-1-yl)-6-trifluoromethyl-pyrimidine] |  |  | Ki [1, 3]: 12.6 nM; Selectivity [Ki(D2)/Ki(D3)] ([2]; Table 5): 100
Cl.Cn1c(-c2ccc(F)cc2)nnc1S(=O)(=O)CCCN1CCN(c2cc(C(F)(F)F)nc(C(C)(C)C)n2)CC1 [Example 16, 2-tert-Butyl-4-(4-{3-[5-(4-fluoro-phenyl)-4-methyl-4H-[1,2,4]triazole-3-sulfonyl]-propyl}-piperazin-1-yl)-6-trifluoromethyl-pyrimidine hydrochloride] |  |  | Ki [1, 3]: 17.7 nM; Selectivity [Ki(D2)/Ki(D3)] ([2]; Table 5): 56
Cl.Cn1cnc(S(=O)(=O)CCCN2CCN(c3cc(C(F)(F)F)nc(C(C)(C)C)n3)CC2)n1 [Example 19, 2-tert-Butyl-4-{4-[3-(1-methyl-1H-[1,2,4]triazole-3-sulfonyl)-propyl]-piperazin-1-yl}-6-trifluoromethyl-pyrimidine hydrochloride] | 32 nM | 17 | 
Cl.Cn1ncnc1S(=O)(=O)CCCN1CCN(c2cc(C(C)(C)C)nc(C(C)(C)C)n2)CC1 [Example 20, 2,4-Di-tert-butyl-6-{4-[3-(2-methyl-2H-[1,2,4]triazole-3-sulfonyl)-propyl]-piperazin-1-yl}-pyrimidine hydrochloride] | 26.2 nM | 8 | 
CC(C)(C)c1cc(N2CCN(CCCS(=O)(=O)c3nc[nH]n3)CC2)nc(C(C)(C)C)n1 [Example 22, 2,4-Di-tert-butyl-6-{4-[3-(1H-[1,2,4]triazole-3-sulfonyl)-propyl]-piperazin-1-yl}-pyrimidine] | 47.4 nM | 19 | 
Cn1cnc(S(=O)(=O)CCCN2CCN(c3cc(C(C)(C)C)nc(C(C)(C)C)n3)CC2)n1 [Example 27, 2,6-di-tert-Butyl-4-{4-[3-(1-methyl-1H-[1,2,4]triazole-3-sulfonyl)-propyl]-piperazin-1-yl}-pyrimidine] | 9.7 nM | 24 | 
CC(C)(C)c1nc(N2CCN(CCCS(=O)(=O)c3nc[nH]n3)CC2)cc(C2(C)CC2)n1 [Example 31, 2-tert-butyl-6-{4-[3-(1H-[1,2,4]triazole-3-sulfonyl)-propyl]-piperazin-1-yl}-6-(1-methyl)cyclopropyl-pyrimidine] | 22.6 nM | 37 | 
Cl.Cn1c(SCCCN2CCN(c3cc(C(F)F)nc(C(C)(C)C)n3)CC2)nnc1C(C)(C)C [c.7, 2-tert-Butyl-4-{4-[3-(4-methyl-5-tert-butyl-4H-[1,2,4]triazol-3-ylsulfanyl)-propyl]-piperazin-1-yl}-6-difluoromethyl-pyrimidine hydrochloride] |  |  | Ki ([1]; Table 7, compounds of formula IIa, read-out: D3): 1.2 nM; Ki ([1]; compounds II, read-out: Ki D3 values): < 5 nM; D2/D3 ([2]; Table 7, compounds of formula IIa): 115
